{"source": "paper PMC7402176", "about": "“Highlighting the Biological Potential of the Brown Seaweed Fucus spiralis for Skin Applications” (Antioxidants, 2020)", "target": "T1, collagenase", "T1 construct": "gene colG; commercial kit enzyme (EnzChek Gelatinase/Collagenase Assay Kit); native bacterial preparation, usually a mixture of collagenases", "assay": "fluorescence assay, fluorescein-conjugate gelatin cleavage", "assay_type": "biochemical", "details": "positive control; EnzChek kit", "excerpt": "fluorescence assay, fluorescein-conjugate gelatin cleavage on collagenase"}
{"smiles": "O=C(O[C@@H]1Cc2c(O)cc(O)cc2O[C@@H]1c1cc(O)c(O)c(O)c1)c1cc(O)c(O)c(O)c1", "note": "[(−)-Epigallocatechin gallate]", "values": [{"measurement": "Collagenase", "value": "4.8 (4.1–5.5) µg/mL"}]}
